# Experimental data as given in patent US10125126B2, “N-cycloalkyl-N-[(heterocyclylphenyl)methylene]-(thio)carboxamide derivatives” (BAYER CROPSCIENCE AG, priority 2012, dated 2018).
# Key:
# [1] = tested on: Septoria tritici; assay: In vivo preventive test on Septoria tritici (wheat); conditions: 500 ppm of active ingredient; wheat plants; 24 days after contamination
# Outline: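 Scipion wheat grown at 22° C, sprayed at 1-leaf stage (10 cm); controls received acetone/tween/DMSO/water without active. Inoculated 24 h later with S. tritici spores (500 000/mL), held 72 h at 18° C, 100% RH, then 21 days at 90% RH. % efficacy vs controls scored 24 days post-inoculation.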
# [2] = log P by HPLC on a reversed-phase column (C 18), EEC Directive 79/831 Annex V.A8; format: physicochemical; conditions: logP
# Outline: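 Reversed-phase C18 HPLC at 40° C with a linear 10% to 90% acetonitrile gradient against 0.1% aqueous formic acid. Log P is read from retention time by linear interpolation between successive unbranched alkan-2-ones (C3–C16) of known log P. UV spectra from 200 to 400 nm, taken at chromatographic peak maxima, give lambda-max.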
# [3] = tested on: Uromyces appendiculatus; assay: In vivo preventive test on Uromyces appendiculatus (bean rust); conditions: 500 ppm of active ingredient; bean plants; 11 days after contamination
# Outline: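 Saxa bean plants at 2-leaf stage, grown at 24° C., sprayed preventively with compound; 24 h later inoculated with U. appendiculatus spores (150 000 spores per mL). Percent efficacy graded 11 days after inoculation versus solvent-treated controls.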
# [4] = tested on: Leptosphaeria nodorum; assay: In vivo preventive test on Leptosphaeria nodorum (wheat); conditions: 500 ppm of active ingredient, evaluated 8 days after inoculation
# Description: In Vivo Preventive Test on Leptosphaeria nodorum Test (Wheat) [table] To produce a suitable preparation of active compound, 1 part by weight of active compound or active compound combination is mixed with the stated amounts of solvent and emulsifier, and the concentrate is diluted with water to the desired concentration. To test for preventive activity, young plants are sprayed with the preparation of active compound or active compound combination at the stated rate of application. After the spray coating has been dried, the plants are sprayed with a spore suspension of Leptosphaeria nodorum. The plants remain for 48 hours in an incubation cabinet at approximately 20° C. and a relative atmospheric humidity of approximately 100%.
# [5] = tested on: Venturia inaequalis; assay: In vivo preventive test on Venturia inaequalis (apples); conditions: 100 ppm of active ingredient, evaluated 10 days after inoculation
# Description: In Vivo Preventive Test on Venturia inaequalis (apples) [table] To produce a suitable preparation of active compound, 1 part by weight of active compound is mixed with the stated amounts of solvent and emulsifier, and the concentrate is diluted with water to the desired concentration. To test for preventive activity, young plants are sprayed with the preparation of active compound at the stated rate of application. After the spray coating has dried on, the plants are inoculated with an aqueous conidia suspension of the causal agent of apple scab (Venturia inaequalis) and then remain for 1 day in an incubation cabinet at approximately 20° C. and a relative atmospheric humidity of 100%. The plants are then placed in a greenhouse at approximately 21° C. and a relative atmospheric humidity of approximately 90%.
# [6] = tested on: Blumeria graminis f.sp. hordei; assay: In vivo preventive test on Blumeria graminis (barley); conditions: 500 ppm of active ingredient, evaluated 7 days after inoculation
# Description: In Vivo Preventive Test on Blumeria graminis (Barley) [table] To produce a suitable preparation of active compound, 1 part by weight of active compound or active compound combination is mixed with the stated amounts of solvent and emulsifier, and the concentrate is diluted with water to the desired concentration. To test for preventive activity, young plants are sprayed with the preparation of active compound or active compound combination at the stated rate of application. After the spray coating has been dried, the plants are dusted with spores of Blumeria graminis f.sp. hordei.
# [7] = tested on: Botrytis cinerea; assay: In vivo preventive test on Botrytis cinerea (grey mould); conditions: 500 ppm of active ingredient; gherkin plants; 4 to 5 days after contamination
# Outline: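 Gherkin plants at cotyledon stage Z11 were sprayed with compound, then inoculated 24 h later with Botrytis cinerea spores (50 000 spores per mL in nutrient solution). Plants were kept at 17° C and 90% RH, and percent efficacy versus solvent-treated controls was graded 4 to 5 days after contamination.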
# [8] = tested on: Puccinia recondita; assay: In vivo preventive test on Puccinia recondita (brown rust on wheat); conditions: 500 ppm of active ingredient; wheat plants; 12 days after contamination
# Outline: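 Wheat plants ("Scipion") at 1-leaf stage, grown at 22° C, were sprayed with compound, then inoculated 24 h later with Puccinia recondita spores (100 000 spores per mL). Efficacy (%) graded 12 days after inoculation relative to solvent-treated controls.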
smiles,measurement,setting,value
"CC(C)c1ccc(-c2csc3ccccc23)cc1CN(C(=O)c1c(C(F)F)nn(C)c1F)C1CC1 [I.157, N-[5-(1-benzothiophen-3-yl)-2-isopropylbenzyl]-N-cyclopropyl-3-(difluoromethyl)-5-fluoro-1-methyl-1H-pyrazole-4-carboxamide]",Efficacy,[1],90%
same,chromatographic logP,[2],5.17
same,Efficacy,[3],100%
same,Efficacy,[4],100%
same,Efficacy,[5],100%
same,Efficacy,[6],100%
same,Efficacy,[7],100%
same,Efficacy,[8],98%
